# Assay results published in patent US20240383886A1, “Protein Tyrosine Phosphatase Degraders and Methods of Use Thereof” (CALICO LIFE SCIENCES LLC, priority 2019, published 2024).
# Key:
# [1] = system: PTPN2; assay: HiBiT-Degradation B16F10.4 PTPN2; assay type: cell-based; settings: B16F10.4 cells, 24.0 hours
# [2] = target: T1, PTPN2 (Homo sapiens, UniProt P17706); assay: HiBiT-Degradation 293T.109 PTPN2 (Nano-Glo HiBiT Lytic Assay); assay type: cell-based; settings: 293T.109 (HiBiT-PTPN2) cells, 24.0 hours
# T1 construct: expressed in transfected cells; host or cells: 293T (293T.109 HiBiT-PTPN2 line; parental 293T WT from ATCC)
# T1 sequence (P17706 1-415): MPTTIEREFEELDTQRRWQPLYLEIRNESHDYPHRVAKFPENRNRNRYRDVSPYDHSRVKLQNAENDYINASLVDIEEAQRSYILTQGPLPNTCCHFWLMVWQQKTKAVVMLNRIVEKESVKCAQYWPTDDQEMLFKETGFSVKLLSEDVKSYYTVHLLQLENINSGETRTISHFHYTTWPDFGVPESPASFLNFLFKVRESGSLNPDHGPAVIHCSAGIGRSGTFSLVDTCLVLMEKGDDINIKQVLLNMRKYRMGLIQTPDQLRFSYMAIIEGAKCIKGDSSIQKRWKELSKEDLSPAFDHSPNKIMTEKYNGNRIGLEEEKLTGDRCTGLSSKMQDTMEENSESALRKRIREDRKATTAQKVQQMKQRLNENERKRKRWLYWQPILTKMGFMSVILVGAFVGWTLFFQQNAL
# Outline: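 Luminescence from a lytic HiBiT read gave PTPN2 levels after 24 h compound exposure at 37° C. Compounds were tested at 11 half-log points from a 10 μM top concentration, in duplicate. The cells were 293T engineered with an N-terminal HiBiT–PTPN2 fusion, plated at 5000 per well, with untreated wells as negative control and no-reagent wells as positive control.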
DC50 [1],DC50 [2],SMILES
≥ 1000 nM,≥ 1000 nM,O=C(CCOCCC(=O)N1CCN(c2ccc(NC3CCC(=O)NC3=O)cc2)CC1)NCCOc1ccc2cc(O)c(N3CC(=O)NS3(=O)=O)c(F)c2c1 (stereo not shown) [Example 43]
≥ 1000 nM,≥ 1000 nM,O=C(CCOCCOCCn1cc(CNc2cccc3c2C(=O)N(C2CCC(=O)NC2=O)C3=O)nn1)NCCOc1ccc2cc(O)c(N3CC(=O)NS3(=O)=O)c(F)c2c1 (stereo not shown) [Example 44]
≥ 1000 nM,200 to 1000 nM,O=C(CCOCCNC(=O)CNc1cccc2c1CN(C1CCC(=O)NC1=O)C2=O)NCCOc1ccc2cc(O)c(N3CC(=O)NS3(=O)=O)c(F)c2c1 (stereo not shown) [Example 45]
≥ 1000 nM,≥ 1000 nM,O=C(CCOCCOCCNC(=O)CNc1cccc2c1CN(C1CCC(=O)NC1=O)C2=O)NCCOc1ccc2cc(O)c(N3CC(=O)NS3(=O)=O)c(F)c2c1 (stereo not shown) [Example 46]
≥ 1000 nM,≥ 1000 nM,O=C(CCCCCn1cc(CNc2cccc3c2C(=O)N(C2CCC(=O)NC2=O)C3=O)nn1)NCCOc1ccc2cc(O)c(N3CC(=O)NS3(=O)=O)c(F)c2c1 (stereo not shown) [Example 47]
≥ 1000 nM,≥ 1000 nM,O=C(CCOCCn1cc(CNc2cccc3c2C(=O)N(C2CCC(=O)NC2=O)C3=O)nn1)NCCOc1ccc2cc(O)c(N3CC(=O)NS3(=O)=O)c(F)c2c1 (stereo not shown) [Example 48]
≥ 1000 nM,≥ 1000 nM,Cn1c(=O)n(C2CCC(=O)NC2=O)c2ccc(C3CCN(CCNc4ccc5c(F)c(N6CC(=O)NS6(=O)=O)c(O)cc5c4)CC3)cc21 (stereo not shown) [Example 52]
≥ 1000 nM,200 to 1000 nM,Cn1c(=O)n(C2CCC(=O)NC2=O)c2ccc(NC3CCN(CCNc4ccc5c(F)c(N6CC(=O)NS6(=O)=O)c(O)cc5c4)CC3)cc21 (stereo not shown) [Example 53]
≥ 1000 nM,200 to 1000 nM,Cn1c(=O)n(C2CCC(=O)NC2=O)c2ccc(C3CCN(C(=O)CNc4ccc5c(F)c(N6CC(=O)NS6(=O)=O)c(O)cc5c4)CC3)cc21 (stereo not shown) [Example 54]
≥ 1000 nM,200 to 1000 nM,O=C1CCC(Nc2ccc(C3CCN(CC(=O)Nc4ccc5c(F)c(N6CC(=O)NS6(=O)=O)c(O)cc5c4)CC3)c(F)c2)C(=O)N1 (stereo not shown) [Example 55]
200 to 1000 nM,≥ 1000 nM,Cn1c(=O)n(C2CCC(=O)NC2=O)c2ccc(N3CCC4(CC3)CN(C(=O)c3ccc5c(F)c(N6CC(=O)NS6(=O)=O)c(O)cc5c3)C4)cc21 (stereo not shown) [Example 56]
≥ 1000 nM,200 to 1000 nM,O=C1CCC(N2Cc3c(NCc4cn(C5CN(C(=O)Nc6ccc7c(F)c(N8CC(=O)NS8(=O)=O)c(O)cc7c6)C5)nn4)cccc3C2=O)C(=O)N1 (stereo not shown) [Example 57]
≥ 1000 nM,200 to 1000 nM,O=C1CCC(N2C(=O)c3cccc(NCc4cn(C5CN(CC(=O)Nc6ccc7c(F)c(N8CC(=O)NS8(=O)=O)c(O)cc7c6)C5)nn4)c3C2=O)C(=O)N1 (stereo not shown) [Example 58]
200 to 1000 nM,200 to 1000 nM,O=C1CCC(N2C(=O)c3ccc(OCc4cn(CCC(=O)Nc5ccc6c(F)c(N7CC(=O)NS7(=O)=O)c(O)cc6c5)nn4)cc3C2=O)C(=O)N1 (stereo not shown) [Example 60]
≥ 1000 nM,200 to 1000 nM,O=C1CCC(N2C(=O)c3cccc(NCc4cccc(C(=O)Nc5ccc6c(F)c(N7CC(=O)NS7(=O)=O)c(O)cc6c5)c4)c3C2=O)C(=O)N1 (stereo not shown) [Example 61]
≥ 1000 nM,200 to 1000 nM,O=C1CCC(N2Cc3c(NCc4cn(CCC(=O)Nc5ccc6c(F)c(N7CC(=O)NS7(=O)=O)c(O)cc6c5)nn4)cccc3C2=O)C(=O)N1 (stereo not shown) [Example 62]

DC50 [1],DC50 [2],SMILES
≥ 1000 nM,200 to 1000 nM,O=C1CCC(N2C(=O)c3cccc(NCc4cn(CCOCCOCCC(=O)Nc5ccc6c(F)c(N7CC(=O)NS7(=O)=O)c(O)cc6c5)nn4)c3C2=O)C(=O)N1 (stereo not shown) [Example 63]
≥ 1000 nM,200 to 1000 nM,O=C1CCC(N2C(=O)c3ccc(NCc4cnn(C5CN(C(=O)Nc6ccc7c(F)c(N8CC(=O)NS8(=O)=O)c(O)cc7c6)C5)c4)cc3C2=O)C(=O)N1 (stereo not shown) [Example 64]
200 to 1000 nM,200 to 1000 nM,O=C1CCC(N2Cc3c(NCC(=O)N4CCC(C(=O)Nc5ccc6c(F)c(N7CC(=O)NS7(=O)=O)c(O)cc6c5)CC4)cccc3C2=O)C(=O)N1 (stereo not shown) [Example 65]
≥ 1000 nM,200 to 1000 nM,CC(Nc1cccc2c1C(=O)N(C1CCC(=O)NC1=O)C2=O)c1cn(CCC(=O)Nc2ccc3c(F)c(N4CC(=O)NS4(=O)=O)c(O)cc3c2)nn1 (stereo not shown) [Example 66]
≥ 1000 nM,200 to 1000 nM,O=C1CCC(N2C(=O)c3cccc(NCc4cn(C5CCN(CC(=O)Nc6ccc7c(F)c(N8CC(=O)NS8(=O)=O)c(O)cc7c6)CC5)nn4)c3C2=O)C(=O)N1 (stereo not shown) [Example 67]
≥ 1000 nM,200 to 1000 nM,O=C1CCC(N2C(=O)c3cccc(NCc4cn(CCC(=O)Nc5ccc6c(F)c(N7CC(=O)NS7(=O)=O)c(O)cc6c5)nn4)c3C2=O)C(=O)N1 (stereo not shown) [Example 68]
≥ 1000 nM,≥ 1000 nM,O=C1CCC(N2C(=O)c3cccc(NCc4cn(CCC(=O)Nc5ccc6c(Cl)c(N7CC(=O)NS7(=O)=O)c(O)cc6c5)nn4)c3C2=O)C(=O)N1 (stereo not shown) [Example 69]
≥ 1000 nM,≥ 1000 nM,Cn1c(=O)n(C2CCC(=O)NC2=O)c2ccc(C3CCN(CCCC(=O)Nc4ccc5c(F)c(N6CC(=O)NS6(=O)=O)c(O)cc5c4)CC3)cc21 (stereo not shown) [Example 70]
≥ 1000 nM,≥ 1000 nM,Cn1c(=O)n(C2CCC(=O)NC2=O)c2ccc(C3CCN(C(=O)c4ccc5c(F)c(N6CC(=O)NS6(=O)=O)c(O)cc5c4)CC3)cc21 (stereo not shown) [Example 71]
50 to 200 nM,10 to 50 nM,"Cn1c(=O)n(C2CCC(=O)NC2=O)c2ccc(C3CCN(CCC(=O)N4CCC(c5ccc6cc(O)c(N7CC(=O)NS7(=O)=O)c(F)c6c5)C4)CC3)cc21 (stereo not shown) [Example 72, 3-[5-[1-[3-[3-[8-fluoro-6-hydroxy-7-(1,1,4-trioxo-1,2,5-thiadiazolidin-2-yl)-2-naphthyl]pyrrolidin-1-yl]-3-oxo-propyl]-4-piperidyl]-3-methyl-2-oxo-benzimidazol-1-yl]piperidine-2,6-dione]"
10 to 50 nM,10 to 50 nM,"Cn1c(=O)n(C2CCC(=O)NC2=O)c2ccc(C3CCN(C(=O)Cn4cc(-c5ccc6c(F)c(N7CC(=O)NS7(=O)=O)c(O)cc6c5)cn4)CC3(F)F)cc21 (stereo not shown) [Example 73, 3-[5-[3,3-difluoro-1-[2-[4-[5-fluoro-7-hydroxy-6-(1,1,4-trioxo-1,2,5-thiadiazolidin-2-yl)-2-naphthyl]pyrazol-1-yl]acetyl]-4-piperidyl]-3-methyl-2-oxo-benzimidazol-1-yl]piperidine-2,6-dione]"
50 to 200 nM,< 10 nM,"Cn1c(=O)n(C2CCC(=O)NC2=O)c2ccc(C3CCN(C(=O)Cn4cc(-c5ccc6c(F)c(N7CC(=O)NS7(=O)=O)c(O)cc6c5)cn4)CC3)cc21 (stereo not shown) [Example 74, 3-[5-[1-[2-[4-[5-fluoro-7-hydroxy-6-(1,1,4-trioxo-1,2,5-thiadiazolidin-2-yl)-2-naphthyl]pyrazol-1-yl]acetyl]-4-piperidyl]-3-methyl-2-oxo-benzimidazol-1-yl]piperidine-2,6-dione]"
10 to 50 nM,10 to 50 nM,"Cn1c(=O)n(C2CCC(=O)NC2=O)c2ccc(-c3ccc(CC(=O)Nc4ccc5c(F)c(N6CC(=O)NS6(=O)=O)c(O)cc5c4)cc3)cc21 (stereo not shown) [Example 77, 2-[4-[1-(2,6-dioxo-3-piperidyl)-3-methyl-2-oxo-benzimidazol-5-yl]phenyl]-N-[5-fluoro-7-hydroxy-6-(1,1,4-trioxo-1,2,5-thiadiazolidin-2-yl)-2-naphthyl]acetamide]"
10 to 50 nM,10 to 50 nM,"Cn1c(=O)n(C2CCC(=O)NC2=O)c2ccc(N3CCC(CC(=O)Nc4ccc5c(F)c(N6CC(=O)NS6(=O)=O)c(O)cc5c4)CC3)cc21 (stereo not shown) [Example 78, N-(6-(1,1-dioxido-4-oxo-1,2,5-thiadiazolidin-2-yl)-5-fluoro-7-hydroxynaphthalen-2-yl)-2-(1-(1-(2,6-dioxopiperidin-3-yl)-3-methyl-2-oxo-2,3-dihydro-1H-benzo[d]imidazol-5-yl)piperidin-4-yl)acetamide]"
200 to 1000 nM,10 to 50 nM,"Cn1nc(C2CCC(=O)NC2=O)c2ccc(C3CCN(C(=O)Cn4cc(-c5ccc6c(F)c(N7CC(=O)NS7(=O)=O)c(O)cc6c5)cn4)CC3)cc21 (stereo not shown) [Example 79, 3-[6-[1-[2-[4-[5-fluoro-7-hydroxy-6-(1,1,4-trioxo-1,2,5-thiadiazolidin-2-yl)-2-naphthyl]pyrazol-1-yl]acetyl]-4-piperidyl]-1-methyl-indazol-3-yl]piperidine-2,6-dione]"
50 to 200 nM,10 to 50 nM,"Cn1c(=O)n(C2CCC(=O)NC2=O)c2ccc(C3CCN(CC(=O)N4CC(Oc5ccc6cc(O)c(N7CC(=O)NS7(=O)=O)c(F)c6c5)C4)CC3(F)F)cc21 (stereo not shown) [Example 80, 3-[5-[3,3-difluoro-1-[2-[3-[[8-fluoro-6-hydroxy-7-(1,1,4-trioxo-1,2,5-thiadiazolidin-2-yl)-2-naphthyl]oxy]azetidin-1-yl]-2-oxo-ethyl]-4-piperidyl]-3-methyl-2-oxo-benzimidazol-1-yl]piperidine-2,6-dione]"
